Measured values from patent US20110112133A1, “DIHYDRO PYRROLOQUINOLINE DERIVATIVES” (Takeda Pharmaceutical Company Limited, priority 2009, published 2011).

Biological target: T1, hNK3 receptor (Homo sapiens, UniProt P29371)
T1 construct: expressed in transfected cells; host or cells: CHO cells
T1 sequence (P29371 1-465): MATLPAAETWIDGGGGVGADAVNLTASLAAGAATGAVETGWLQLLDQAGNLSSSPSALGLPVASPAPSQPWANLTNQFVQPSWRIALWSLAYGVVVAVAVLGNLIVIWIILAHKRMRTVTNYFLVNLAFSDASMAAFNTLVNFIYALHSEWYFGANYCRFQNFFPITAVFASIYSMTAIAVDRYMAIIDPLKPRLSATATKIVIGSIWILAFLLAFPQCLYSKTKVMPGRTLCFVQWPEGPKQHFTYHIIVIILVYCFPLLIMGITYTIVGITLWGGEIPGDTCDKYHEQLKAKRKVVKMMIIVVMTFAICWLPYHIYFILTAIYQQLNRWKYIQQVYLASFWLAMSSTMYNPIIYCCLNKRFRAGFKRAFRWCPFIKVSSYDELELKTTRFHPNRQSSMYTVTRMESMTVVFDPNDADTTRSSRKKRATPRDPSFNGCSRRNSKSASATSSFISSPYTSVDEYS
Assay: Radioligand receptor binding inhibitory activity using membrane fraction of hNK3 receptor-expressing CHO cell ([125I]-NKB)
Conditions: for inhibition at 10 µM / inhibition at 1 µM: read-out: hNK3 receptor binding inhibitory activity (inhibitory rate (%))
Procedure: Radioligand Receptor Binding Inhibitory Activity Using Membrane Fraction of hNK3 Receptor-Expressing CHO Cell
hNK3 receptor-expressing CHO cells were cultured in a HAM-F12 medium containing 500 μg/mL Geneticin, 100 U/mL penicillin, 100 μg/mL streptomycin and 10% inactivated serum. The medium was removed before reaching confluence, and the cells were washed with PBS. PBS containing 0.5 mM EDTA was added to detach the cells from the flask and a cell suspension was recovered. The cells were recovered by low speed centrifugation. The cells were suspended in suspending buffer A (50 mM Tris-HCl (pH 7.4), 120 mM NaCl, 5 mM KCl, bacitracin (40 μg/mL), chymostatin (2 μg/mL), PMSF (0.5 mM), 1 mM EDTA), disrupted by a POLYTRON homogenizer (manufactured by KINEMATICA) and centrifuged at 2000×g for 10 min at 4° C. The supernatant was recovered, and ultracentrifuged at 40000×g for 60 min at 4° C. The precipitated fraction was suspended in suspending buffer B (50 mM Tris-HCl (pH 7.4), 3 mM MnCl2, 0.02% BSA, bacitracin (40 μg/mL), chymostatin (2 μg/mL), PMSF (0.5 mM)). The protein concentration of the suspension was measured using Bio-Rad Protein Assay kit and bovine serum albumin (protein preparation), and cryopreserved (at −80° C.) as a membrane fraction preparation of hNK3 receptor-expressing CHO cell until use for a binding assay.
The radioligand receptor binding assay was performed in a 96 well microassay plate format with a final volume of 200 μL. To the 96 well microassay plate were added 50 μL of assay buffer (50 mM Tris-HCl (pH 7.4), 0.02% bovine serum albumin, 2 μg/mL chymostatin, 40 μg/mL bacitracin, 40 μg/mL APMSF, 3 mM MnCl2), the aforementioned cryopreserved membrane fraction preparation suspended in assay buffer (50 μL (300 μg/mL)) and a test compound diluted with 50 μL of assay buffer (containing 2% dimethyl sulfoxide). The reaction was started by the addition of 50 μL of 400 pM [^125I]-NKB NKB (PerkinElmer Life Sciences) solution. For the measurement of the total binding, assay buffer (50 μL) containing 2% dimethyl sulfoxide was added instead of a diluted test compound solution, and for the measurement of non-specific binding, 50 μL of 4 μM unlabeled NKB (manufactured by Peptide Institute, Inc.) solution (diluted with assay buffer containing 2% dimethyl sulfoxide) was added.
After reaction at room temperature for 30 min, using a cell harvester (manufactured by PerkinElmer), the reaction was stopped by rapid filtration on a unifilter plate (GF/C) (manufactured by PerkinElmer), which had been immersed in 0.3% polyethyleneimine for one day, and the membrane fraction was washed 10 times with 50 mM Tris-HCl (pH 7.4) buffer containing 0.02% bovine serum albumin (250 μL). The GF/C filter plate was dried and 20 μL of MicroScinti-O (manufactured by PerkinElmer) was added to each well and the radioactivity was measured by TopCount (manufactured by PerkinElmer).
Specific binding is shown by the value obtained by subtracting non-specific binding from the total binding. The binding inhibitory activity of the test compound is shown by the ratio of the value obtained by subtracting the measured value associated with the addition of the test compound from the total binding, to the value of the specific binding.

| inhibition at 10 µM (test compound 10^−5 M) [%] | hNK3 receptor binding inhibitory activity (inhibitory rate (%)) (test compound 10^−6 M) [%] | hNK3 receptor binding inhibitory activity (inhibitory rate (%)) (test compound 10^−5 M) [%] | inhibition at 1 µM (test compound 10^−6 M) [%] | Structure (SMILES) |
| --- | --- | --- | --- | --- |
| 28.4 | 9.0 |  |  | Cc1ccn(-c2ccc(C(=O)N[C@@H]3CCC(F)(F)C[C@@H]3C(=O)N3CCc4c(-c5ncc[nH]5)nc5ccccc5c43)cc2)n1 [Example 1, N-[(1R,2S)-4,4-difluoro-2-{[4-(1H-imidazol-2-yl)-2,3-dihydro-1H-pyrrolo[3,2-c]quinolin-1-yl]carbonyl}cyclohexyl]-4-(3-methyl-1H-pyrazol-1-yl)benzamide] |
|  | 9.4 | 30.4 |  | Cc1ccn(-c2ccc(C(=O)N[C@@H]3CCC(F)(F)C[C@@H]3C(=O)N3CCc4c(-c5ncc[nH]5)nc5ccccc5c43)cc2)n1.Cl [Example 3, N-[(1R,2S)-4,4-difluoro-2-{(4-(1H-imidazol-2-yl)-2,3-dihydro-1H-pyrrolo[3,2-c]quinolin-1-yl]carbonyl}cyclohexyl]-4-(3-methyl-1H-pyrazol-1-yl)benzamide hydrochloride] |
| -7.9 |  |  | -6.1 | Cc1ccn(-c2ccc(C(=O)N[C@@H]3CCC(F)(F)C[C@@H]3C(=O)N3CCc4c(-c5nccn5COC(=O)C(C)(C)C)nc5ccccc5c43)cc2)n1 [Example 4, [2-(1-{[(1S,2R)-5,5-difluoro-2-({[4-(3-methyl-1H-pyrazol-1-yl)phenyl]carbonyl}amino)cyclohexyl]carbonyl)-2,3-dihydro-1H-pyrrolo[3,2-c]quinolin-4-yl)-1H-imidazol-1-yl]methyl 2,2-dimethylpropanoate] |

The next lines start with the molecule.

| Structure (SMILES) | inhibition at 10 µM (test compound 10^−5 M) [%] | hNK3 receptor binding inhibitory activity (inhibitory rate (%)) (test compound 10^−6 M) [%] | hNK3 receptor binding inhibitory activity (inhibitory rate (%)) (test compound 10^−5 M) [%] | inhibition at 1 µM (test compound 10^−6 M) [%] |
| --- | --- | --- | --- | --- |
| Br.Cc1ccn(-c2ccc(C(=O)N[C@@H]3CCC(F)(F)C[C@@H]3C(=O)N3CCc4c(-c5ncc[nH]5)nc5ccccc5c43)cc2)n1 [Example 2, N-[(1R,2S)-4,4-difluoro-2-{[4-(1H-imidazol-2-yl)-2,3-dihydro-1H-pyrrolo[3,2-c]quinolin-1-yl]carbonyl}cyclohexyl]-4-(3-methyl-1H-pyrazol-1-yl)benzamide hydrobromide] |  | 4.1 | 32.7 |  |
| Cc1ccn(-c2ccc(C(=O)N[C@@H]3CCC(F)(F)C[C@@H]3C(=O)N3CCc4c(-c5ncc[nH]5)nc5ccc(F)cc5c43)cc2)n1 [Example 5, N-[(1R,2S)-4,4-difluoro-2-{[8-fluoro-4-(1H-imidazol-2-yl)-2,3-dihydro-1H-pyrrolo[3,2-c]quinolin-1-yl]carbonyl}cyclohexyl]-4-(3-methyl-1H-pyrazol-1-yl)benzamide] | 15.2 |  |  | -8.1 |
| Cc1ccn(-c2ccc(C(=O)N[C@@H]3CCC(F)(F)C[C@@H]3C(=O)N3CCc4c(-c5ccsc5)nc5ccccc5c43)cc2)n1 [Example 7, N-[(1R,2S)-4,4-difluoro-2-{(4-thiophen-3-yl-2,3-dihydro-1H-pyrrolo[3,2-c]quinolin-1-yl)carbonyl]cyclohexyl}-4-(3-methyl-1H-pyrazol-1-yl)benzamide] | 35.6 |  |  | 5.9 |
| Cc1ccn(-c2ccc(C(=O)N[C@@H]3CCC(F)(F)C[C@@H]3C(=O)N3CCc4c(-c5ccccc5)nc5ccc(F)cc5c43)cc2)n1 [Example 9, N-{(1R,2S)-4,4-difluoro-2-[(8-fluoro-4-phenyl-2,3-dihydro-1H-pyrrolo[3,2-c]quinolin-1-yl)carbonyl]cyclohexyl}-4-(3-methyl-1H-pyrazol-1-yl)benzamide] | 53.1 |  |  | 27.7 |
